Values of other authors as cited in patent US7645767B2, “Pharmaceutical compositions for treating chronic pain and pain associated with neuropathy” (Trinity Laboratories, Inc., priority 2006, dated 2010).

Columns and labels:
[1] = test system: complex regional pain syndrome and neuropathic pain
[2] = for accumulation during multiple dose treatment: multiple dose treatment with tramadol
[3] = biological target: μ-opiate receptors (Homo sapiens, UniProt P35372)
[4] = test system: analgesic effect

Chain of μ-opiate receptors (P35372 whole entry): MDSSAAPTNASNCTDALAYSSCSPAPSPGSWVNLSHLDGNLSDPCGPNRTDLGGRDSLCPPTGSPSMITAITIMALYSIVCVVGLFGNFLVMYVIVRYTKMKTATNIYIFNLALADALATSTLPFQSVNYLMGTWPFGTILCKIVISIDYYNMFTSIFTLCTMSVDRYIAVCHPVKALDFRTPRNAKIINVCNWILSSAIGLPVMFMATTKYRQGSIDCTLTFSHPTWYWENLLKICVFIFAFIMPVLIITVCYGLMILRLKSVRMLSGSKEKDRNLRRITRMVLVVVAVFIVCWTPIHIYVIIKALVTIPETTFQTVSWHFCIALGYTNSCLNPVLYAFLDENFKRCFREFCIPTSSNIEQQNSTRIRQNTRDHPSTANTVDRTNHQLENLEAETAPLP

SMILES | absorption in the jejunum (oral dosing of rats, after 3 hours) | time to distribution to brain, spinal cord, liver and blood (rats, i.v. administration) | duration of sustained analgesia ([1]; capsaicin concentration 5-10% under regional anesthesia) | dropout rates due to burning pain at the site of application ([1]; topical capsaicin trials) | time to peak serum concentrations ([2]; after oral administration) | accumulation during multiple dose treatment [2] | affinity for μ-opiate receptors, fold less than codeine ([3]; relative to codeine) | affinity for μ-opiate receptors, fold less than d-propoxyphene ([3]; relative to d-propoxyphene) | affinity for μ-opiate receptors compared with dextromethorphan ([3]; relative to dextromethorphan) | affinity for μ-opiate receptors, fold less than morphine ([3]; relative to morphine) | duration of the analgesic effect ([4]; after a single oral dose of tramadol 100 mg) | half-life ([2]; after a single oral dose of 100 mg tramadol, 2-compartmental elimination) | analgesic potency compared with parent drug ([4]; relative to tramadol)
COc1cc(CNC(=O)CCCCC=CC(C)C)ccc1O [capsaicin, 8-methyl-N-vanillyl-6-nonenamide] | 85% | ≤ 20 min | 1 to 8 weeks | 33 to 67% |  |  |  |  |  |  |  |  | 
COc1cccc(C2(O)CCCCC2CN(C)C)c1 (racemic) [tramadol, (+/−)-trans (RR,SS)-2-[(dimethylamino)methyl]-1-(3-methoxyphenyl)cyclohexanol] |  |  |  |  | ≤ 2 h | approximately 2 fold | 10 fold | 100 fold | equivalent | 6,000 fold | about 6 hours |  | 
CN(C)C[C@H]1CCCC[C@]1(O)c1cccc(O)c1 [O-desmethyltramadol] |  |  |  |  |  | approximately 2 fold |  |  |  |  |  | 9 h | at least twice
